Patent US8759546B2, “Physical nano-complexes for preventing and treating cancer and method for manufacturing the same” (Gold Nanotech Inc., priority 2012, dated 2014)

What was measured:
MBT-2 cells [1] = assay: cell cycle of MBT-2 cells; assay type: cell-based
Protocol: Following, the mechanism of the EGCG and nanogold mediated cell apoptosis was investigated. Refer to FIG. 7 for a table of the cell cycle of MBT-2 cell treated by various concentrations of EGCG and nanogold. […] The MBT-2 cells otherwise underwent G0/G1 arrest when the doses of EGCG (50 μM) and nanogold (2 ppm) were increased.

caspase-3 and -7 = assay: Caspase-3/7 activity in MBT-2 cells; assay type: cell-based; conditions: 12 and 24 hours treatment
Protocol: To assure that the EGCG and nanogold mediated apoptosis are triggered by the caspase effectors, we then examined expressions of the apoptosis-dependent enzymes caspase-3 and -7. Refer to FIG. 8 for a schematic diagram of Caspase-3/7 activity after EGCG and/or nanogold treatment for 12 and 24 hours.

MBT-2 cells [2] = assay: apoptosis detection by Annexin-V and PI staining, flow cytometry; assay type: cell-based; conditions: in 48 hours
Description: Cell apoptosis features some morphological alterations, such as chromatin condensation, membrane blebbing, inter-nucleosomal degradation of DNA, and apoptotic body formation. Previous study reported that EGCG can induce apoptosis via the PI3K/Akt pathway and Bcl-2 family proteins in T24 human bladder cancer cells. […] The cells in test were subjected to flow cytometry analysis, whereby apoptotic bodies can be detected by Annexin-V and PI staining Refer to FIG. […]

[3] = test system: African green monkey kidney cells (Vero cell); assay: viability of Vero cells at 48 hour post-treatment; assay type: cell-based; conditions: in the presence of EGCG or nanogold
Protocol: (§1) Firstly, to evaluate the tumor cytotoxicity of EGCG and/or nanogold, we examined viabilities of bladder cancer cells (MBT-2) and African green monkey kidney cells (Vero cell acts as a normal cell) at 48 hour post-EGCG or -nanogold treatment. Referring to FIG. 3, which is a schematic diagram of the cell viability of Vero cells and MBT-2 cells under different treating concentration of EGCG and nanogold. […] Refer to FIG. 4 for a schematic diagram of the concentrations of EGCG and nanogold mediated the 50% of cell growth inhibition of Vero cell and MBT-2 cell (IC50). […] In contrast, the Vero cell numbers were not changed in the presence of EGCG or nanogold.

[4] = test system: bladder cancer cells (MBT-2); assay: viability of MBT-2 cells at 48 hour post-treatment; assay type: cell-based
Protocol: as §1

[5] = superoxide radical scavenging effect; assay type: biochemical; conditions: compared to vitamin E alone
Description: Refer to FIG. 2 for a schematic diagram of the anti-oxidant effect of the EGCG-nanogold complexes.

epigallocatechin-3-gallate [EGCG]
cell cycle arrest (MBT-2 cells [1]; increased doses: EGCG 50 μM, nanogold 2 ppm): G0/G1 arrest
cell cycle arrest (MBT-2 cells [1]; lower doses): arrested in the S phase
caspase-3 and -7, fold increase versus the vehicle-alone controls (caspase-3 and -7): 2.42±0.43 fold
percentage of Annexin-V-positive cells (MBT-2 cells [2]): 16.6%
Vero cell numbers [3]: not changed
MBT-2 cell numbers, % of the control ([4]; EGCG and nanogold 2 ppm, combined or alone): 49.7%
viability of MBT-2 cells ([4]; different treating concentrations): reduce the viability of MBT-2 cells in a concentration-dependent manner
superoxide radical scavenging activity [5]: significant superoxide radical scavenging activity
